Laboratory results published in the NIST ThermoML archive (doi:10.1016/j.fluid.2017.11.013).
Values joined by “and” are separate entries in the source; they are usually repeats but may differ in a detail not shown here. Equal values may be shown once.

Details: Coaxial cylinder method

C=C [ethene]
Details	thermal conductivity
283.47 K, 101 kPa, Gas	0.01865 W/m/K
283.47 K, 4620 kPa, Fluid (supercritical or subcritical phases)	0.03417 W/m/K
283.47 K, 4770 kPa, Fluid (supercritical or subcritical phases)	0.03732 W/m/K
283.47 K, 4910 kPa, Fluid (supercritical or subcritical phases)	0.04251 W/m/K
283.47 K, 4960 kPa, Fluid (supercritical or subcritical phases)	0.04566 W/m/K
283.47 K, 5050 kPa, Fluid (supercritical or subcritical phases)	0.05593 W/m/K
283.47 K, 5090 kPa, Fluid (supercritical or subcritical phases)	0.06391 W/m/K
283.47 K, 5120 kPa, Fluid (supercritical or subcritical phases)	0.07425 W/m/K
283.47 K, 5140 kPa, Fluid (supercritical or subcritical phases)	0.09013 W/m/K
283.47 K, 5150 kPa, Fluid (supercritical or subcritical phases)	0.1049 W/m/K and 0.1032 W/m/K
283.47 K, 5160 kPa, Fluid (supercritical or subcritical phases)	0.1241 W/m/K
283.47 K, 5170 kPa, Fluid (supercritical or subcritical phases)	0.1339 W/m/K
283.47 K, 5180 kPa, Fluid (supercritical or subcritical phases)	0.1143 W/m/K
283.47 K, 5190 kPa, Fluid (supercritical or subcritical phases)	0.09843 W/m/K
283.47 K, 5200 kPa, Fluid (supercritical or subcritical phases)	0.09006 W/m/K and 0.0888 W/m/K
283.47 K, 5210 kPa, Fluid (supercritical or subcritical phases)	0.08522 W/m/K
283.47 K, 5220 kPa, Fluid (supercritical or subcritical phases)	0.08191 W/m/K
283.47 K, 5230 kPa, Fluid (supercritical or subcritical phases)	0.07984 W/m/K
283.47 K, 5240 kPa, Fluid (supercritical or subcritical phases)	0.07787 W/m/K
283.47 K, 5250 kPa, Fluid (supercritical or subcritical phases)	0.076 W/m/K
283.47 K, 5290 kPa, Fluid (supercritical or subcritical phases)	0.07419 W/m/K
283.47 K, 5300 kPa, Fluid (supercritical or subcritical phases)	0.07248 W/m/K
283.47 K, 5370 kPa, Fluid (supercritical or subcritical phases)	0.07203 W/m/K
283.47 K, 5390 kPa, Fluid (supercritical or subcritical phases)	0.07122 W/m/K
283.47 K, 5440 kPa, Fluid (supercritical or subcritical phases)	0.06948 W/m/K
283.47 K, 5480 kPa, Fluid (supercritical or subcritical phases)	0.06848 W/m/K
283.47 K, 5540 kPa, Fluid (supercritical or subcritical phases)	0.06774 W/m/K
283.47 K, 5730 kPa, Fluid (supercritical or subcritical phases)	0.06774 W/m/K
283.47 K, 5820 kPa, Fluid (supercritical or subcritical phases)	0.06848 W/m/K
283.47 K, 5930 kPa, Fluid (supercritical or subcritical phases)	0.06847 W/m/K
283.47 K, 6220 kPa, Fluid (supercritical or subcritical phases)	0.07041 W/m/K
283.47 K, 6490 kPa, Fluid (supercritical or subcritical phases)	0.07152 W/m/K
283.47 K, 6720 kPa, Fluid (supercritical or subcritical phases)	0.07259 W/m/K
283.47 K, 6980 kPa, Fluid (supercritical or subcritical phases)	0.07316 W/m/K
283.47 K, 7060 kPa, Fluid (supercritical or subcritical phases)	0.07329 W/m/K
283.47 K, 7200 kPa, Fluid (supercritical or subcritical phases)	0.07345 W/m/K
283.47 K, 7610 kPa, Fluid (supercritical or subcritical phases)	0.07519 W/m/K
283.47 K, 8250 kPa, Fluid (supercritical or subcritical phases)	0.07664 W/m/K
283.47 K, 8910 kPa, Fluid (supercritical or subcritical phases)	0.07874 W/m/K
283.96 K, 101 kPa, Gas	0.01869 W/m/K
283.96 K, 3380 kPa, Fluid (supercritical or subcritical phases)	0.02528 W/m/K
283.96 K, 3960 kPa, Fluid (supercritical or subcritical phases)	0.02767 W/m/K
283.96 K, 4620 kPa, Fluid (supercritical or subcritical phases)	0.03396 W/m/K
283.96 K, 4970 kPa, Fluid (supercritical or subcritical phases)	0.04334 W/m/K
283.96 K, 5050 kPa, Fluid (supercritical or subcritical phases)	0.04855 W/m/K
283.96 K, 5090 kPa, Fluid (supercritical or subcritical phases)	0.05262 W/m/K
283.96 K, 5110 kPa, Fluid (supercritical or subcritical phases)	0.05631 W/m/K
283.96 K, 5120 kPa, Fluid (supercritical or subcritical phases)	0.05987 W/m/K
283.96 K, 5150 kPa, Fluid (supercritical or subcritical phases)	0.06832 W/m/K
283.96 K, 5190 kPa, Fluid (supercritical or subcritical phases)	0.08914 W/m/K
283.96 K, 5200 kPa, Fluid (supercritical or subcritical phases)	0.1005 W/m/K
283.96 K, 5210 kPa, Fluid (supercritical or subcritical phases)	0.11 W/m/K
283.96 K, 5220 kPa, Fluid (supercritical or subcritical phases)	0.1162 W/m/K
283.96 K, 5230 kPa, Fluid (supercritical or subcritical phases)	0.1119 W/m/K
283.96 K, 5240 kPa, Fluid (supercritical or subcritical phases)	0.1008 W/m/K
283.96 K, 5260 kPa, Fluid (supercritical or subcritical phases)	0.08675 W/m/K
283.96 K, 5270 kPa, Fluid (supercritical or subcritical phases)	0.08189 W/m/K
283.96 K, 5290 kPa, Fluid (supercritical or subcritical phases)	0.0783 W/m/K
283.96 K, 5300 kPa, Fluid (supercritical or subcritical phases)	0.07641 W/m/K
283.96 K, 5340 kPa, Fluid (supercritical or subcritical phases)	0.07293 W/m/K
283.96 K, 5400 kPa, Fluid (supercritical or subcritical phases)	0.07163 W/m/K
283.96 K, 5500 kPa, Fluid (supercritical or subcritical phases)	0.06977 W/m/K
283.96 K, 5590 kPa, Fluid (supercritical or subcritical phases)	0.06886 W/m/K
283.96 K, 5740 kPa, Fluid (supercritical or subcritical phases)	0.06796 W/m/K
283.96 K, 5920 kPa, Fluid (supercritical or subcritical phases)	0.06854 W/m/K
283.96 K, 6140 kPa, Fluid (supercritical or subcritical phases)	0.06972 W/m/K
283.96 K, 6310 kPa, Fluid (supercritical or subcritical phases)	0.0703 W/m/K
283.96 K, 6530 kPa, Fluid (supercritical or subcritical phases)	0.0709 W/m/K
283.96 K, 6710 kPa, Fluid (supercritical or subcritical phases)	0.07122 W/m/K
283.96 K, 7100 kPa, Fluid (supercritical or subcritical phases)	0.07249 W/m/K
284.89 K, 101 kPa, Gas	0.01877 W/m/K
284.89 K, 680 kPa, Fluid (supercritical or subcritical phases)	0.02012 W/m/K
284.89 K, 1170 kPa, Fluid (supercritical or subcritical phases)	0.02064 W/m/K
284.89 K, 2430 kPa, Fluid (supercritical or subcritical phases)	0.02241 W/m/K
284.89 K, 3520 kPa, Fluid (supercritical or subcritical phases)	0.02591 W/m/K
284.89 K, 4330 kPa, Fluid (supercritical or subcritical phases)	0.03024 W/m/K
284.89 K, 4740 kPa, Fluid (supercritical or subcritical phases)	0.03518 W/m/K
284.89 K, 4900 kPa, Fluid (supercritical or subcritical phases)	0.03781 W/m/K
284.89 K, 5030 kPa, Fluid (supercritical or subcritical phases)	0.04219 W/m/K
284.89 K, 5100 kPa, Fluid (supercritical or subcritical phases)	0.04581 W/m/K
284.89 K, 5160 kPa, Fluid (supercritical or subcritical phases)	0.05257 W/m/K
284.89 K, 5200 kPa, Fluid (supercritical or subcritical phases)	0.05764 W/m/K
284.89 K, 5240 kPa, Fluid (supercritical or subcritical phases)	0.0653 W/m/K
284.89 K, 5260 kPa, Fluid (supercritical or subcritical phases)	0.06948 W/m/K
284.89 K, 5290 kPa, Fluid (supercritical or subcritical phases)	0.08267 W/m/K
284.89 K, 5310 kPa, Fluid (supercritical or subcritical phases)	0.09324 W/m/K
284.89 K, 5320 kPa, Fluid (supercritical or subcritical phases)	0.09654 W/m/K
284.89 K, 5340 kPa, Fluid (supercritical or subcritical phases)	0.09916 W/m/K
284.89 K, 5360 kPa, Fluid (supercritical or subcritical phases)	0.08875 W/m/K
284.89 K, 5380 kPa, Fluid (supercritical or subcritical phases)	0.08399 W/m/K
284.89 K, 5400 kPa, Fluid (supercritical or subcritical phases)	0.07691 W/m/K
284.89 K, 5430 kPa, Fluid (supercritical or subcritical phases)	0.07429 W/m/K
284.89 K, 5460 kPa, Fluid (supercritical or subcritical phases)	0.07184 W/m/K
284.89 K, 5490 kPa, Fluid (supercritical or subcritical phases)	0.06955 W/m/K
284.89 K, 5530 kPa, Fluid (supercritical or subcritical phases)	0.06954 W/m/K
284.89 K, 5600 kPa, Fluid (supercritical or subcritical phases)	0.06952 W/m/K
284.89 K, 5610 kPa, Fluid (supercritical or subcritical phases)	0.06954 W/m/K
284.89 K, 5670 kPa, Fluid (supercritical or subcritical phases)	0.06864 W/m/K
284.89 K, 5780 kPa, Fluid (supercritical or subcritical phases)	0.06822 W/m/K
284.89 K, 5890 kPa, Fluid (supercritical or subcritical phases)	0.06866 W/m/K
284.89 K, 6170 kPa, Fluid (supercritical or subcritical phases)	0.06954 W/m/K
284.89 K, 6530 kPa, Fluid (supercritical or subcritical phases)	0.07045 W/m/K
284.89 K, 7030 kPa, Fluid (supercritical or subcritical phases)	0.07139 W/m/K
284.89 K, 7500 kPa, Fluid (supercritical or subcritical phases)	0.07332 W/m/K
284.89 K, 8190 kPa, Fluid (supercritical or subcritical phases)	0.07593 W/m/K
284.89 K, 8580 kPa, Fluid (supercritical or subcritical phases)	0.07756 W/m/K
284.89 K, 8590 kPa, Fluid (supercritical or subcritical phases)	0.07756 W/m/K
284.89 K, 9070 kPa, Fluid (supercritical or subcritical phases)	0.07866 W/m/K
284.89 K, 9530 kPa, Fluid (supercritical or subcritical phases)	0.07924 W/m/K
284.89 K, 9990 kPa, Fluid (supercritical or subcritical phases)	0.08043 W/m/K
284.89 K, 10010 kPa, Fluid (supercritical or subcritical phases)	0.08041 W/m/K
285.04 K, 5080 kPa, Fluid (supercritical or subcritical phases)	0.04457 W/m/K
285.04 K, 5100 kPa, Fluid (supercritical or subcritical phases)	0.04514 W/m/K
285.04 K, 5210 kPa, Fluid (supercritical or subcritical phases)	0.05584 W/m/K
285.04 K, 5270 kPa, Fluid (supercritical or subcritical phases)	0.06826 W/m/K
285.04 K, 5300 kPa, Fluid (supercritical or subcritical phases)	0.07918 W/m/K
285.04 K, 5340 kPa, Fluid (supercritical or subcritical phases)	0.09492 W/m/K
285.04 K, 5350 kPa, Fluid (supercritical or subcritical phases)	0.09641 W/m/K
285.04 K, 5370 kPa, Fluid (supercritical or subcritical phases)	0.09081 W/m/K
285.04 K, 5420 kPa, Fluid (supercritical or subcritical phases)	0.07925 W/m/K
285.04 K, 5490 kPa, Fluid (supercritical or subcritical phases)	0.07233 W/m/K
285.04 K, 5640 kPa, Fluid (supercritical or subcritical phases)	0.06952 W/m/K
285.04 K, 6040 kPa, Fluid (supercritical or subcritical phases)	0.06871 W/m/K and 0.0687 W/m/K
285.04 K, 6050 kPa, Fluid (supercritical or subcritical phases)	0.06846 W/m/K
285.04 K, 6140 kPa, Fluid (supercritical or subcritical phases)	0.06843 W/m/K
285.04 K, 6150 kPa, Fluid (supercritical or subcritical phases)	0.06861 W/m/K
